How the values were obtained:
Test in all cases: relative viability (nuclei count vs DMSO), 5 days (fraction); higher = more cells survive
Adavosertib + Lapatinib = compound: C=CCn1c(=O)c2cnc(Nc3ccc(N4CCN(C)CC4)cc3)nc2n1-c1cccc(C(C)(C)O)n1 [Adavosertib] + CS(=O)(=O)CCNCc1ccc(-c2ccc3ncnc(Nc4ccc(OCc5cccc(F)c5)c(Cl)c4)c3c2)o1 [Lapatinib] (partner 2 µM)
Outline: (§1)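 Dosing by pin tool came one day after lung cancer cell lines were seeded in 1536-well plates, using either one drug or a fixed anchor-drug dose plus five library-drug doses (not always all listed) in √10 steps. After 5 days, nuclei were counted on 4× images. Relative viability is treated-well nuclei count divided by vehicle-well nuclei count, and values are medians of duplicate plates.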

Adavosertib + Pictilisib = compound: C=CCn1c(=O)c2cnc(Nc3ccc(N4CCN(C)CC4)cc3)nc2n1-c1cccc(C(C)(C)O)n1 [Adavosertib] + CS(=O)(=O)N1CCN(Cc2cc3nc(-c4cccc5[nH]ncc45)nc(N4CCOCC4)c3s2)CC1 [Pictilisib] (partner 1 µM)
Outline: as §1

Nelarabine + Lapatinib = compound: COc1nc(N)nc2c1ncn2[C@@H]1O[C@H](CO)[C@@H](O)[C@@H]1O [Nelarabine] + CS(=O)(=O)CCNCc1ccc(-c2ccc3ncnc(Nc4ccc(OCc5cccc(F)c5)c(Cl)c4)c3c2)o1 [Lapatinib] (partner 2 µM)
Outline: as §1

Nelarabine + Alpelisib = compound: COc1nc(N)nc2c1ncn2[C@@H]1O[C@H](CO)[C@@H](O)[C@@H]1O [Nelarabine] + Cc1nc(NC(=O)N2CCC[C@H]2C(N)=O)sc1-c1ccnc(C(C)(C)C(F)(F)F)c1 [Alpelisib] (partner 2 µM)
Outline: as §1

Row | Cell Line | relative viability (Adavosertib + Lapatinib; first compound 0.01 µM) | relative viability (Adavosertib + Lapatinib; first compound 0.03162 µM) | relative viability (Adavosertib + Lapatinib; first compound 0.1 µM) | relative viability (Adavosertib + Lapatinib; first compound 0.3162 µM) | relative viability (Adavosertib + Pictilisib; first compound 0.01 µM) | relative viability (Adavosertib + Pictilisib; first compound 0.03162 µM) | relative viability (Adavosertib + Pictilisib; first compound 0.1 µM) | relative viability (Adavosertib + Pictilisib; first compound 0.3162 µM) | relative viability (Nelarabine + Lapatinib; first compound 0.01 µM) | relative viability (Nelarabine + Lapatinib; first compound 0.03162 µM) | relative viability (Nelarabine + Lapatinib; first compound 0.1 µM) | relative viability (Nelarabine + Lapatinib; first compound 0.3162 µM) | relative viability (Nelarabine + Lapatinib; first compound 1 µM) | relative viability (Nelarabine + Alpelisib; first compound 0.01 µM) | relative viability (Nelarabine + Alpelisib; first compound 0.03162 µM) | relative viability (Nelarabine + Alpelisib; first compound 0.1 µM) | relative viability (Nelarabine + Alpelisib; first compound 0.3162 µM) | relative viability (Nelarabine + Alpelisib; first compound 1 µM)
1 | HCC-366 | 1.09 | 1.07 | 1.08 | 1.13 | 0.155 | 0.143 | 0.217 | 0.172 | 1.46 | 0.952 | 1.23 | 1.2 | 1.17 | 0.468 | 0.267 | 0.308 | 0.517 | 0.47
2 | HCC-78 | 0.509 | 0.972 | 0.782 | 0.868 | 0.194 | 0.221 | 0.255 | 0.171 | 0.731 | 0.779 | – | 0.902 | 0.631 | 0.349 | 0.336 | – | 0.349 | 0.4
3 | NCI-H358 | 0.355 | 0.429 | 0.46 | 0.431 | 0.356 | 0.312 | 0.353 | 0.285 | 0.518 | 0.436 | 0.421 | 0.405 | 0.431 | 0.906 | 0.839 | 0.62 | 0.845 | 0.857
4 | NCI-H23 | 0.935 | 1.25 | 0.855 | 0.328 | 0.504 | 0.51 | 0.49 | 0.236 | 1.5 | 1.1 | 1.06 | 1.17 | 1.18 | 0.637 | 0.719 | 0.606 | 0.686 | 0.693
5 | PC-14 | 0.344 | 0.319 | 0.297 | 0.407 | 0.72 | 0.64 | 0.569 | 0.272 | 0.327 | 0.342 | 0.307 | 0.328 | 0.353 | 0.857 | 0.97 | 1.02 | 1.04 | 0.947
6 | NCI-H1650 | 0.75 | 0.884 | 0.747 | 0.379 | 0.652 | 0.579 | 0.506 | 0.3 | 0.882 | 0.834 | 0.783 | 0.831 | 0.826 | – | – | – | – | –
7 | H3255 | 0.25 | 0.251 | 0.219 | 0.203 | 0.502 | 0.452 | 0.447 | 0.402 | 0.248 | 0.267 | 0.226 | 0.235 | 0.201 | 0.859 | 0.897 | 0.644 | 0.687 | 0.75
8 | NCI-H1563 | 1.02 | 1.02 | 0.969 | 0.932 | 0.631 | 0.62 | 0.609 | 0.625 | 0.944 | 1.02 | 0.985 | 0.998 | 1.03 | 0.956 | 0.858 | 0.886 | 1 | 0.919
9 | A549 | 0.908 | 1.01 | 1.06 | 0.743 | 0.505 | 0.513 | 0.554 | 0.382 | 1.13 | 1.09 | 0.926 | 0.896 | 0.921 | 0.885 | 0.879 | 0.783 | 0.818 | 0.858

From the supplement of paper PMC10307832
